Data published in US9561238B2, “Pharmaceutical compositions comprising estetrol derivatives for use in cancer therapy” (Donesta Bioscience B. V., priority 2002, dated 2017).
Values belong to the compound of their own block, whether it stands above or below them.

Columns and labels:
[1] = Agonistic models of in vivo estrogenicity (bone resorption, hot flushing, vaginal cornification), previous studies; settings: for in vivo estrogenicity in preventing bone resorption, prevention of hot flushing and vaginal cornification: 0.125 mg/kg/day EE compared with […] E4; for potency in agonistic models of preventing bone resorption, prevention of hot flushing and vaginal cornification: […] EE compared with 0.5 mg/kg/day E4
human ERα = human ERα (Homo sapiens (Human), UniProt P03372); experiment: Competitive steroid binding assay, ERα; settings: preference for binding to ERα protein over ERβ, from Ki values
Sequence of human ERα (P03372 whole entry): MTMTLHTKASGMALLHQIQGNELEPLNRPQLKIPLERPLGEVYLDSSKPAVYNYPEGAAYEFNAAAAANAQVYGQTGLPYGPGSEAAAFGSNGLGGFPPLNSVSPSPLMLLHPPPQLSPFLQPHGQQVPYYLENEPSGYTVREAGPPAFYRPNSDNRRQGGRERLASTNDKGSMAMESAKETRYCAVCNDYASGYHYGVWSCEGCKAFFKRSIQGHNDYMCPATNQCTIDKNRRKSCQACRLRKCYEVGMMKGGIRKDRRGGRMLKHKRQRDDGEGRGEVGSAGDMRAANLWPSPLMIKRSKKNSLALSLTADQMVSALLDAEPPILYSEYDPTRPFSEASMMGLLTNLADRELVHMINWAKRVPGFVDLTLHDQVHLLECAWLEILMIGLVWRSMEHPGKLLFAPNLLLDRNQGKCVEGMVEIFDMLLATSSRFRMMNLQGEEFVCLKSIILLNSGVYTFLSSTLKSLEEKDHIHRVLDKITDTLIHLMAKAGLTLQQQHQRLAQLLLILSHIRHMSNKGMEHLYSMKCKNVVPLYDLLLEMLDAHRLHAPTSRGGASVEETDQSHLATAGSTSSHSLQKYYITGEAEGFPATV

[2] = tested on: DMBA-induced mammary tumours; experiment: 7,12-dimethyl-benz(a)anthracene (DMBA)-induced tumour model in rats; format: in vivo, rat
Description: In order to further assess the anti-tumour efficacy of the estrogenic substances of the present invention, estetrol was tested in the 7,12-dimethyl-benz(a)anthracene (DMBA)-induced tumour model in rats. This model, originally developed by Huggins et al., 1961 (Nature, 19, 204-207), has been widely used and is a generally accepted model with predictive value for anti-tumour agents in humans.
Eighty-four female Sprague-Dawley rats (Harlan, The Netherlands) were group housed, maintained in a 12-hr light/dark environment, and fed a Soya Free Diet (SDS England) and water ad libitum. Animals were weighed on a weekly basis. One week prior to induction of mammary carcinoma, 12 animals (aged 43 days) were surgically castrated via removal of the ovaries. At the age of 50 days, all animals were administered a single oral dose of 16 mg DMBA to induce tumour development. […]
During the treatment period of 8 weeks, the emergence of palpable tumours and number of tumours were determined weekly. […]

[3] = tested on: DMH-induced malignant colon tumours; experiment: 1,2 dimethylhydrazine (DMH)-induced colon cancer in ovariectomized female rats; format: in vivo, rat; settings: estetrol orally 0.1 to 3.0 mg/kg/day; necropsy 15 weeks after first DMH
Description: A study is performed to examine the effect of estetrol on 1,2 dimethylhydrazine (DMH)-induced colon cancer in ovariectomized female rats.
DMH-induced cancer development is chosen as a model of “estrogen-suppressed tumours”, because it mimics the human situation of colon carcinomas closely:
One week prior to induction of colon carcinomas, fifty sexually mature female Sprague-Dawley rats, weighing between 150 and 200 gram (Harlan, The Netherlands), are surgically castrated via removal of the ovaries. During the experiment, rats are maintained in separate plastic cages at 12 hour light/dark cycles and allowed free access to food (Purina chow) and water.
Animals are randomly allocated to one of five groups, each consisting of 10 rats, which, starting three days after ovariectomy and ending at autopsy, receive placebo or estetrol treatment during the experiment as follows: • Group 1 animals receiving placebo oral treatment with 3.0 ml/kg/day vehicle (20% wt/vol solution of hydroxypropyl-beta-cyclodextrin in water); • Group 2 animals receiving estetrol orally at a single daily dose of 0.1 mg/kg; • Group 3 animals receiving estetrol orally at a single daily dose of 0.3 mg/kg; • Group 4 animals receiving estetrol orally at a single daily dose of 1.0 mg/kg; • Group 5 animals receiving estetrol orally at a single daily dose of 3.0 mg/kg. […]

[4] = tested on: DMH-induced malignant colon tumours; settings: previously published; cited from earlier work
[5] = tested on: DMBA-induced mammary tumours; settings: literature; cited from earlier work

Compound: C#C[C@]1(O)CC[C@H]2[C@@H]3CCc4cc(O)ccc4[C@H]3CC[C@@]21C [EE, 17α-ethinylestradiol]
in vivo estrogenicity in preventing bone resorption, prevention of hot flushing and vaginal cornification [1]: equipotency
potency in agonistic models of preventing bone resorption, prevention of hot flushing and vaginal cornification [1]: equipotency

Relative ERα/ERβ preference (human ERα): 400%
Compound: C[C@]12CC[C@@H]3c4ccc(O)cc4CC[C@H]3[C@@H]1[C@@H](O)[C@@H](O)[C@@H]2O [E4, 1,3,5(10)-estratrien-3,15α,16α,17β-tetrol]
in vivo estrogenicity in preventing bone resorption, prevention of hot flushing and vaginal cornification [1]: equipotency
potency in agonistic models of preventing bone resorption, prevention of hot flushing and vaginal cornification [1]: equipotency
preventing growth of DMBA-induced tumours, compared with tamoxifen ([2]; E4 […] vs tamoxifen 3 mg/kg/day orally): as effective as tamoxifen
number of malignant tumours [3]: declines as a function of increasing the daily oral estetrol dose

Compound: C[C@]12CC[C@@H]3c4ccc(O)cc4CC[C@H]3[C@@H]1CC[C@@H]2O [E2, 17β-estradiol]
protection in the DMH model [4]: confers protection

Compound: CC/C(=C(\c1ccccc1)c1ccc(OCCN(C)C)cc1)c1ccccc1 [tamoxifen]
anti-tumour treatment in the DMBA model [5]: effective anti-tumour treatments
development of mammary tumours ([2]; tamoxifen 3 mg/kg/day orally, 8 weeks): inhibiting the development of mammary tumours
